Results published in article PMC9093066 (Bioorganic & Medicinal Chemistry, 2022).

Tests used:
[1] = molecular target: T1, NudF ADP-ribose pyrophosphatase (Escherichia coli, UniProt Q93K97); experiment: NudF-mediated counterscreen of ADPr-Glo assay; format: biochemical; settings: NudF only with free ADP-ribose
T1 sequence (Q93K97 1-209): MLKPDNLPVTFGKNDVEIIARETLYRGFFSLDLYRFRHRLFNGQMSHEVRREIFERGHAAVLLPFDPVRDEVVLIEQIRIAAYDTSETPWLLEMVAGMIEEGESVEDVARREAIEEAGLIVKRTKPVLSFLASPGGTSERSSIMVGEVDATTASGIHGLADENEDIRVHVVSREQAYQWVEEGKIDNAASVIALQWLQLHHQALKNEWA

SARS-CoV-2 Mac1 [2] = molecular target: T2, SARS-CoV-2 Mac1 (Severe acute respiratory syndrome coronavirus 2, UniProt P0DTD1); format: binding; settings: DSF, 300 µM compound, ± SD of three replicates
SARS-CoV-2 Mac1 [3] = molecular target: T2, SARS-CoV-2 Mac1; format: binding; settings: for SARS CoV2 Mac1 Alpha (IC50): AlphaScreen ADP-ribose binding, IC50 ± SD of three replicates
Mac1 = settings: cited from earlier work
SARS-CoV-2 Mac1 [4] = molecular target: T2, SARS-CoV-2 Mac1; format: biochemical; settings: ADPr-Glo dose response, n = 2
[5] = system: panel of MAR binding proteins from viruses and humans

O=C(O)C1CCCN(c2ncnc3[nH]ccc23)C1 (centres unmarked) [Compound 6g, 1-(7H-pyrrolo[2,3–d]pyrimidin-4-yl)piperidine-3-carboxylic acid]
activity in NudF-mediated counterscreen [1]: Neither compound demonstrated any activity

O=C(O)[C@@H]1CCC[C@@H]1Nc1ncnc2[nH]ccc12 [Compound 19, (1R, 2S)-2-((7H-pyrrolo[2,3–d]pyrimidin-4-yl)amino)cyclopentane-1-carboxylic acid]
Δ Tm (°C) @300 µM (SARS-CoV-2 Mac1 [2]): > 1 °C

Methyl (R)-4-(7H-pyrrolo[2,3–d]pyrimidin-4-yl)piperazine-2-carboxylate ●TFA [Compound 10b]
SARS CoV2 Mac1 Alpha (IC50) (SARS-CoV-2 Mac1 [3]): Inactive

COC(=O)[C@@H]1CN(c2ncnc3[nH]ccc23)CCN1.O=C(O)C(F)(F)F [Compound 10a, Methyl (S)-4-(7H-pyrrolo[2,3–d]pyrimidin-4-yl)piperazine-2-carboxylate ●TFA]
SARS CoV2 Mac1 Alpha (IC50) (SARS-CoV-2 Mac1 [3]): Inactive

Cc1ccc(C(=O)Nc2ccc(S(=O)(=O)O)c3cc(S(=O)(=O)O)cc(S(=O)(=O)O)c23)cc1NC(=O)c1cccc(NC(=O)Nc2cccc(C(=O)Nc3cc(C(=O)Nc4ccc(S(=O)(=O)O)c5cc(S(=O)(=O)O)cc(S(=O)(=O)O)c45)ccc3C)c2)c1 [Suramin]
stabilization of the protein in DSF assay (Mac1): concentration dependent stabilization of the protein

O=C(O)C1CCN(c2ncnc3[nH]ccc23)CC1 [Compound 6h, 1-(7H-pyrrolo[2,3–d]pyrimidin-4-yl)piperidine-4-carboxylic acid]
Δ Tm (°C) @300 µM (SARS-CoV-2 Mac1 [2]): > 1 °C
fold improvement of potency over the initial fragment (SARS-CoV-2 Mac1 [3]; vs fragment 1): ~10 fold

CC(C)C[C@H](Nc1ncnc2[nH]ccc12)C(=O)O [Compound 15b, (7H-pyrrolo[2,3–d]pyrimidine-4-yl)-L-leucinate]
SARS CoV2 Mac1 Alpha (IC50) (SARS-CoV-2 Mac1 [3]): completely inactive

O=C(O)[C@H](Cc1c[nH]c2ccccc12)Nc1ncnc2[nH]ccc12 [Compound 15c, (7H-pyrrolo[2,3–d]pyrimidin-4-yl)-L-tryptophan]
activity in NudF-mediated counterscreen [1]: Neither compound demonstrated any activity
inhibition of Mac1 enzyme (ADP-ribosylhydrolase) activity (SARS-CoV-2 Mac1 [4]): dose-dependent inhibition
selectivity in panel of ADP-ribose binding proteins [5]: remarkably selective for coronavirus macrodomains

CCOC(=O)[C@H](CC(C)C)Nc1ncnc2[nH]ccc12 [Compound 14b, Ethyl (7H-pyrrolo[2,3–d]pyrimidine-4-yl)-L-leucinate]
SARS CoV2 Mac1 Alpha (IC50) (SARS-CoV-2 Mac1 [3]): completely inactive

O=C(O)CNc1ncnc2[nH]ccc12 [Compound 15d, (7H-pyrrolo[2,3–d]pyrimidin-4-yl)glycine]
SARS CoV2 Mac1 Alpha (IC50) (SARS-CoV-2 Mac1 [3]): did not demonstrate any inhibitory effect

c1ccc2c(CCNc3ncnc4[nH]ccc34)c[nH]c2c1 [Compound 20, N-(2-(1H-indol-3-yl)ethyl)-7H-pyrrolo[2,3–d]pyrimidin-4-amine]
fold less potent than 15c (SARS-CoV-2 Mac1 [3]): approximately 7 fold
